Assay results: US20240366598A1, “GLUCOSE-DEPENDENT INSULINOTROPIC POLYPEPTIDE RECEPTOR ANTAGONISTS AND USES THEREOF” (Pfizer Inc., priority 2023, published 2024)

The compounds below were run against T1, human Glucose-dependent Insulinotropic Polypeptide Receptor (hGIPR) (Homo sapiens, UniProt P48546) (assay: Functional in vitro GIPR antagonist potency assay (cAMP HTRF, CHO-K1 cells stably expressing hGIPR, hGIP stimulation at about EC80)). Conditions: geometric mean, hGIP at estimated EC80, examples marked ^2: overall geometric mean of multiple forms (including salts) tested.
T1 sequence (P48546 22-466): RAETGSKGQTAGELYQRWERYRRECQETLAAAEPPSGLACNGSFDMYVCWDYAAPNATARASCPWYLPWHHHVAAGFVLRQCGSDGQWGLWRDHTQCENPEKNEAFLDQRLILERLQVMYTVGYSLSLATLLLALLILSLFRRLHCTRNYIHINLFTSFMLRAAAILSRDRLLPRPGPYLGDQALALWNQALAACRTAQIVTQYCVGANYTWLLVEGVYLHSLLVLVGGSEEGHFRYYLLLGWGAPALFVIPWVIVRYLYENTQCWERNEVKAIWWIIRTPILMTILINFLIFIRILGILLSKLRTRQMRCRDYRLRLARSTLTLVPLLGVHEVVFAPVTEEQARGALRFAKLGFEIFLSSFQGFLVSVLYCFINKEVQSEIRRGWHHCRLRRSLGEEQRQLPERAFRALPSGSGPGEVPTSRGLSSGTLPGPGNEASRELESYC
Format: cell-based
Method in brief: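 CHO-K1 cells expressing hGIPR (2,000 per well) in HBSS/HEPES/0.1% BSA with 200 μM IBMX were preincubated 2 h at 37 °C with an 11-point compound series (0.5% DMSO). hGIP at about EC80 was then added for 30 min, and cAMP was read by HTRF (665/620 nm). Data were normalized between hGIP alone and full antagonism by a reference antagonist at 80 μM.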

In order of rising IC50:
1. O=C(O)c1ccc(-c2ccc(NC(=O)[C@H]3CCCN3C(=O)Nc3ccc(C4CC4)c(C(F)(F)F)c3)cc2)cc1 [Example 26, 4′-[(1-{[4-Cyclopropyl-3-(trifluoromethyl)phenyl]carbamoyl}-D-prolyl)amino][1,1′-biphenyl]-4-carboxylic acid]  2.1 nM
2. CC(C)c1ccc(NC(=O)N2CCC[C@@H]2C(=O)Nc2ccc(-c3ccc(C(=O)O)cc3)cc2)cc1F [Example 64, 4′-[(1-{[3-fluoro-4-(propan-2-yl)phenyl]carbamoyl}-D-prolyl)amino][1,1′-biphenyl]-4-carboxylic acid]  2.9 nM
3. Cc1cc(NC(=O)N2CCC[C@@H]2C(=O)Nc2ccc(-c3ccc(C(=O)O)cc3)cc2)ccc1C(C)C [Example 39, ammonium 4′-[(1-{[3-methyl-4-(propan-2-yl)phenyl]carbamoyl}-D-prolyl)amino][1,1′-biphenyl]-4-carboxylate]  3.7 nM
4. CC(C)c1ccc(NC(=O)N2CCC[C@@H]2C(=O)Nc2ccc(-c3ccc(C(=O)O)c(F)c3)cc2)cc1F [Example 214, 3-fluoro-4′-[(1-{[3-fluoro-4-(propan-2-yl)phenyl]carbamoyl}-D-prolyl)amino][1,1′-biphenyl]-4-carboxylic acid]  6.7 nM
5. O=C(O)c1ccc(-c2ccc(NC(=O)[C@H]3CCCN3C(=O)NCc3ccc(C(F)(F)F)c(Cl)c3)cc2)cc1 [Example 130, 4′-{[1-({[3-chloro-4-(trifluoromethyl)phenyl]methyl}carbamoyl)-D-prolyl]amino}[1,1′-biphenyl]-4-carboxylic acid]  11 nM
6. O=C(O)c1ccc(-c2ccc(NC(=O)[C@H]3CCCN3C(=O)Nc3ccc(Cl)cc3)cc2)cc1 [Example 13, ammonium 4′-({1-[(4-chlorophenyl)carbamoyl]-D-prolyl}amino)[1,1′-biphenyl]-4-carboxylate]  12 nM
7. CC(C)c1ccc(NC(=O)N2CCC[C@@H]2C(=O)Nc2ccc(-c3ccc(C(=O)O)cc3C(F)(F)F)cc2)cc1 [Example 49, 4′-[(1-{[4-(propan-2-yl)phenyl]carbamoyl}-D-prolyl)amino]-2-(trifluoromethyl)[1,1′-biphenyl]-4-carboxylic acid]  14 nM
8. O=C(O)c1ccc(-c2ccc(NC(=O)[C@H]3CCCN3C(=O)Nc3ccc(CC(F)(F)F)cc3)cc2)cc1 [Example 155, 4′-[(1-{[4-(2,2,2-trifluoroethyl)phenyl]carbamoyl}-D-prolyl)amino][1,1′-biphenyl]-4-carboxylic acid]  22 nM
9. CC(C)c1ccc(NC(=O)N2CCC[C@@H]2C(=O)Nc2ccc(-c3ccc(C(=O)O)cn3)cc2)cc1F [Example 182, 6-{4-[(1-{[3-fluoro-4-(propan-2-yl)phenyl]carbamoyl}-D-prolyl)amino]phenyl}pyridine-3-carboxylic acid]  23 nM
10. O=C(O)c1cccc(-c2ccc(NC(=O)[C@H]3CCCN3C(=O)Nc3ccc(C(F)(F)F)cc3)nc2)c1 [Example 181, 3-{6-[(1-{[4-(trifluoromethyl)phenyl]carbamoyl}-D-prolyl)amino]pyridin-3-yl}benzoic acid]  24 nM
11. CC(C)c1ccc(NC(=O)N2CCC[C@@H]2C(=O)Nc2ccc(-c3cc(F)c(C(=O)O)cc3F)cc2)cc1 [Example 82, 2,5-difluoro-4′-[(1-{[4-(propan-2-yl)phenyl]carbamoyl}-D-prolyl)amino][1,1′-biphenyl]-4-carboxylic acid]  27 nM
12. O=C(O)c1ccc(-c2ccc(NC(=O)[C@H]3CCCN3C(=O)Nc3cc(Cl)cc(Cl)c3)cc2)cc1 [Example 59, 4′-({1-[(3,5-dichlorophenyl)carbamoyl]-D-prolyl}amino)[1,1′-biphenyl]-4-carboxylic acid]  35 nM
13. Cc1cc(C(=O)O)cc(Cl)c1-c1ccc(NC(=O)[C@H]2CCCN2C(=O)Nc2ccc(C(C)C)cc2)cc1 [Example 90, 2-chloro-6-methyl-4′-[(1-{[4-(propan-2-yl)phenyl]carbamoyl}-D-prolyl)amino][1,1′-biphenyl]-4-carboxylic acid]  45 nM
14. CO[C@@H]1C[C@H](C(=O)Nc2ccc(-c3ccc(C(=O)O)cc3)cc2)N(C(=O)Nc2ccc(C(C)C)cc2)C1 [Example 36, 4′-{[(4R)-4-Methoxy-1-{[4-(propan-2-yl)phenyl]carbamoyl}-D-prolyl]amino}[1,1′-biphenyl]-4-carboxylic acid]  46 nM
15. CC(C)c1ccc(NC(=O)N2CCC[C@@H]2C(=O)Nc2ccc(-c3cc(F)c(C(=O)O)cc3Cl)cc2)cc1 [Example 70, 2-chloro-5-fluoro-4′-[(1-{[4-(propan-2-yl)phenyl]carbamoyl}-D-prolyl)amino][1,1′-biphenyl]-4-carboxylic acid]  49 nM
16. Cc1cc(NC(=O)N2CCC[C@@H]2C(=O)Nc2ccc3c(n2)CC[C@@H](C(=O)O)C3)ccc1C(F)(F)F (single isomer, unassigned) [Example 226, 2-[(1-{[3-methyl-4-(trifluoromethyl)phenyl]carbamoyl}-D-prolyl)amino]-5,6,7,8-tetrahydroquinoline-6-carboxylic acid, DIAST-1]  81 nM
17. COc1cc(C(=O)O)cc(C)c1-c1ccc(NC(=O)[C@H]2CCCN2C(=O)Nc2ccc(C(C)C)cc2)cc1 [Example 92, 2-methoxy-6-methyl-4′-[(1-{[4-(propan-2-yl)phenyl]carbamoyl}-D-prolyl)amino][1,1′-biphenyl]-4-carboxylic acid]  87 nM
18. Cc1cc(NC(=O)N2CCC[C@@H]2C(=O)Nc2ccc(-c3ccc(C(=O)O)cc3)nc2)ncc1C(F)(F)F [Example 222, 4-{5-[(1-{[4-methyl-5-(trifluoromethyl)pyridin-2-yl]carbamoyl}-D-prolyl)amino]pyridin-2-yl}benzoic acid]  100 nM
19. CC(C)c1ccc(NC(=O)N2CCC[C@@H]2C(=O)Nc2ccc3cc(C(=O)O)ccc3c2)cc1 (racemic) [Example 41, 6-[(1-{[4-(propan-2-yl)phenyl]carbamoyl}prolyl)amino]naphthalene-2-carboxylic acid]  160 nM
20. Cc1cc(O)ccc1-c1ccc(NC(=O)[C@H]2CCCN2C(=O)Nc2ccc(C(C)C)cc2)cc1 [Example 97, (2R)-N^2-(4′-hydroxy-2′-methyl[1,1′-biphenyl]-4-yl)-N^1-[4-(propan-2-yl)phenyl]pyrrolidine-1,2-dicarboxamide]  230 nM
21. CC(C)c1ccc(NC(=O)N2CCC[C@@H]2C(=O)Nc2ccc(-c3c(F)ccc(C(=O)O)c3F)cc2)cc1 [Example 80, 2,6-difluoro-4′-[(1-{[4-(propan-2-yl)phenyl]carbamoyl}-D-prolyl)amino][1,1′-biphenyl]-3-carboxylic acid]  400 nM
22. CC(C)c1ccc(NC(=O)N2CCC[C@@H]2C(=O)Nc2ccc(-c3ccc(F)c(C(=O)O)c3F)cc2)cc1 [Example 88, 2,4-difluoro-4′-[(1-{[4-(propan-2-yl)phenyl]carbamoyl}-D-prolyl)amino][1,1′-biphenyl]-3-carboxylic acid]  430 nM
23. N#Cc1cc(CNC(=O)N2CCC[C@@H]2C(=O)Nc2ccc(-c3ccc(C(=O)O)cc3)cc2)ccc1Cl [Example 107, 4′-[(1-{[(4-chloro-3-cyanophenyl)methyl]carbamoyl}-D-prolyl)amino][1,1′-biphenyl]-4-carboxylic acid]  720 nM
